From patent publication US7838518B2, “1-arylsulfonyl-3-substituted indole and indoline derivatives useful in the treatment of central nervous system disorders” (N.V. Organon, priority 2002, dated 2010) come the findings set out here.

The target of this test is T1, human 5-HT6 receptor (Homo sapiens, UniProt P50406).
T1 construct: expressed in transfected cells
The experiment in a line: 5-HT6 receptor binding assay ([3H]-LSD competition). As to conditions: membranes of NIH 3T3 cells stably expressing the human 5-HT6 gene; [3H]-LSD radioligand; IC50 converted to pKi by Cheng-Prusoff equation; read-out: pKi (affinity for the 5-HT6 receptor) (converted). The procedure:
The ability of the compounds of the invention to interact with the 5-HT6 receptor is established in (competitive) binding studies to NIH 3T3 cells stably expressing the human 5-HT6 receptor.
NIH 3T3 cells stably expressing the human 5-HT6 gene were grown at 37° C. in a 5% CO2 atmosphere in DMEM supplemented with 10% cosmic calf serum (Hyclone) and subcultured when confluent. Cells were harvested by trypsination (Sigma) and membranes prepared by homogenisation followed by centrifugation in […] Tris buffer (pH 7.4) containing […] magnesium sulphate and […] EDTA. Radioligand binding assays were performed in 96 well polystyrene deep well plates (Semat) in a final volume of 500 μl, consisting of 100 μl of competing drug, 100 μl of 10 nmole·L^−1 [^3H]-lysergic acid diethylamide (LSD) and 300 μl of diluted membrane expressing the 5-HT6 receptor. All test compounds were dissolved in DMSO (dimethyl-sulfoxide) at 10 mM and serially diluted is assay buffer to give a six-fold concentration range (between 0.01 nM and 100 μM). Non-specific binding was determined with 10 μM Methiothepin. Plates were incubated at room temperature for 90 minutes. The reactions were terminated by rapid filtration using a Packard harvester onto 96 well GF/B filter plates (Packerd Unifilter) presoaked with 0.3% w/N polyethyleneimine, washed 3 times with ice-cold assay buffer (1 ml), oven dried and 50 μl Microscint-20 added. The retained radioactivity was then determined using a scintillation counter.
Data were analysed using standard curve fitting procedures (Graphpad: four parameter logistic equation) to produce IC50 values for active compounds (where IC50 is the concentration of test compound causing 50% inhibition of binding). IC50 values were conerted to pKi values using the Cheng-Prusoff equation 1 (Cheng, Y. and Prosoff, W. H., Biochem. Pharmacol. 22, 3099-3108, 1973).

Counter-ions that a name gives are not always drawn.

T1 sequence (P50406 whole entry): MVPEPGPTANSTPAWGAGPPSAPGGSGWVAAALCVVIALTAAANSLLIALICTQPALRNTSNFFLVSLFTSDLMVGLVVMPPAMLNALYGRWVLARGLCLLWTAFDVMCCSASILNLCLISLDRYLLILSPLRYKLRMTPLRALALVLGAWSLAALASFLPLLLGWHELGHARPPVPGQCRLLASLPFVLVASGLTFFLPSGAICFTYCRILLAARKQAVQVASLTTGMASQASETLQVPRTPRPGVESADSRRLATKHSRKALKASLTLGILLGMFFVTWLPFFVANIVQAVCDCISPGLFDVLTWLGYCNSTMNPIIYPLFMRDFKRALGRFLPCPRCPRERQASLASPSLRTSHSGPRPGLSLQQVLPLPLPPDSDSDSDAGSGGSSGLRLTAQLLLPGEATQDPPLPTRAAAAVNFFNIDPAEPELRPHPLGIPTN

For the molecule `COc1ccc(S(=O)(=O)N2CC(C(=O)NCCC3CCCN3C)c3ccccc32)c2ccccc12` (centres unmarked) [Example 1, 1-(4-Methoxynaphthalene-1-sulfonyl)-2,3-dihydro-1H-indole-3-carboxylic acid [2-(1-methyl-pyrrolidin-2-yl)-ethyl]amide], the Ki is < 31.6 nM.
For `COc1ccc(S(=O)(=O)N2CC(C(=O)NC3CCCN(C)C3)c3ccccc32)c2ccccc12` (centres unmarked) [Example 2, 1-(4-Methoxynaphthalene-1-sulfonyl)-2,3-dihydro-1H-indole-3-carboxylic acid (1-methyl-piperidin-3-yl)amide] the value was < 31.6 nM; for `COc1ccc(S(=O)(=O)N2CC(C(=O)N3CCNCC3)c3ccccc32)c2ccccc12` (centres unmarked) [Example 17, [1-(4-Methoxynaphthalene-1-sulfonyl)-2,3-dihydro-1H-indol-3-yl]-piperazin-1-yl-methanone], < 31.6 nM; for `CCN(CC)CCNC(=O)C1CN(S(=O)(=O)c2ccc(OC)c3ccccc23)c2ccccc21` (centres unmarked) [Example 24, 1-(4-Methoxynaphthalene-1-sulfonyl)-2,3-dihydro-1H-indole-3-carboxylic acid (2-diethylamino-ethyl)-amide], < 31.6 nM.
`COc1ccc(S(=O)(=O)N2CC(C(=O)NC3CCN(C)CC3)c3ccccc32)c2ccccc12` (centres unmarked) [Example 25, 1-(4-Methoxynaphthalene-1-sulfonyl)-2,3-dihydro-1H-indole-3-carboxylic acid (1-methyl-piperidin-4-yl)-amide]: the Ki was < 31.6 nM.
As to `COc1ccc(S(=O)(=O)N2CC(C(=O)NC3CC4CCC(C3)N4C)c3ccccc32)c2ccccc12` (centres unmarked) [Example 31, 1-(4-Methoxynaphthalene-1-sulfonyl)-2,3-dihydro-1H-indole-3-carboxylic acid (8-methyl-8-aza-bicyclo[3.2.1]oct-3-yl)amide], the Ki is < 31.6 nM.
The figure for `COc1ccc(S(=O)(=O)N2CC(C(=O)N(C)C3CCN(C)CC3)c3ccccc32)c2ccccc12` (centres unmarked) [Example 35, 1-(4-Methoxynaphthalene-1-sulfonyl)-2,3-dihydro-1H-indole-3-carboxylic acid methyl-(1-methyl-piperidin-4-yl)-amide] is < 31.6 nM; for `CN1CCC(N(C)C(=O)C2CN(S(=O)(=O)c3cccc(C(F)(F)F)c3)c3ccccc32)CC1` (centres unmarked) [Example 39, 1-(3-Trifluoromethyl-benzenesulfonyl)-2,3-dihydro-1H-indole-3-carboxylic acid methyl-(1-methyl-piperidin-4-yl)-amide trifluoroacetate] it is < 31.6 nM; for `CN1CCC(N(C)C(=O)C2CN(S(=O)(=O)c3cccc(Br)c3)c3ccccc32)CC1` (centres unmarked) [Example 40, 1-(3-Bromo-benzenesulfonyl)-2,3-dihydro-1H-indole-3-carboxylic acid methyl-(1-methyl-piperidin-4-yl)-amide trifluoroacetate] it is < 31.6 nM.
As to `CN1CCC(N(C)C(=O)C2CN(S(=O)(=O)c3ccc(OC(F)(F)F)cc3)c3ccccc32)CC1` (centres unmarked) [Example 42, 1-(4-Trifluoromethoxy-benzenesulfonyl)-2,3-dihydro-1H-indole-3-carboxylic acid methyl-(1-methyl-piperidin-4-yl)-amide trifluoroacetate], the Ki was < 31.6 nM.
The figure for `CN1CCC(N(C)C(=O)C2CN(S(=O)(=O)c3ccc(C(F)(F)F)cc3)c3ccccc32)CC1` (centres unmarked) [Example 50, 1-(4-Trifluoromethyl-benzenesulfonyl)-2,3-dihydro-1H-indole-3-carboxylic acid methyl-(1-methyl-piperidin-4-yl)-amide trifluoroacetate] is < 31.6 nM; for `CN1CCC(N(C)C(=O)C2CN(S(=O)(=O)c3cc(Cl)sc3Cl)c3ccccc32)CC1` (centres unmarked) [Example 51, 1-(2,5-Dichloro-thiophene-3-sulfonyl)-2,3-dihydro-1H-indole-3-carboxylic acid methyl-(1-methyl-piperidin-4-yl)-amide trifluoroacetate] it is < 31.6 nM; for `CN1CCC(N(C)C(=O)C2CN(S(=O)(=O)c3ccc4c(c3)CCO4)c3ccccc32)CC1` (centres unmarked) [Example 55, 1-(2,3-Dihydro-benzofuran-5-sulfonyl)-2,3-dihydro-1H-indole-3-carboxylic acid methyl-(1-methyl-piperidin-4-yl)-amide trifluoroacetate] it is < 31.6 nM.
For `CN1CCC(N(C)C(=O)C2CN(S(=O)(=O)c3ccc4ccccc4c3)c3ccccc32)CC1` (centres unmarked) [Example 58, 1-(Naphthalene-2-sulfonyl)-2,3-dihydro-1H-indole-3-carboxylic acid methyl-(1-methyl-piperidin-4-yl)-amide trifluoroacetate] the value was < 31.6 nM.
In the case of `CN1CCC(N(C)C(=O)C2CN(S(=O)(=O)c3cccc4ccccc34)c3ccccc32)CC1` (centres unmarked) [Example 59, 1-(Naphthalene-1-sulfonyl)-2,3-dihydro-1H-indole-3-carboxylic acid methyl-(1-methyl-piperidin-4-yl)-amide trifluoroacetate], the Ki is < 31.6 nM.
Take `CN1CCC(N(C)C(=O)C2CN(S(=O)(=O)c3cccc(-c4ccccc4)c3)c3ccccc32)CC1` (centres unmarked) [Example 60, 1-(Biphenyl-3-sulfonyl)-2,3-dihydro-1H-indole-3-carboxylic acid methyl-(1-methyl-piperidin-4-yl)-amide trifluoroacetate]: the Ki was < 31.6 nM.
For `CN1CCC(N(C)C(=O)C2CN(S(=O)(=O)c3csc4ccccc34)c3ccccc32)CC1` (centres unmarked) [Example 62, 1-(Benzo[b]thiophene-3-sulfonyl)-2,3-dihydro-1H-indole-3-carboxylic acid methyl-(1-methyl-piperidin-4-yl)-amide trifluoroacetate] the value was < 31.6 nM; for `COc1ccc(S(=O)(=O)N2CC(C(=O)N(C)C3CCN(C)CC3)c3ccccc32)cc1Br` (centres unmarked) [Example 69, 1-(3-Bromo-4-methoxy-benzenesulfonyl)-2,3-dihydro-1H-indole-3-carboxylic acid methyl-(1-methyl-piperidin-4-yl)-amide trifluoroacetate], < 31.6 nM; for `CN1CCC(N(C)C(=O)C2CN(S(=O)(=O)c3cccc4c(Cl)cccc34)c3ccccc32)CC1` (centres unmarked) [Example 71, 1-(5-Chloro-naphthalene-1-sulfonyl)-2,3-dihydro-1H-indole-3-carboxylic acid methyl-(1-methyl-piperidin-4-yl)-amide trifluoroacetate], < 31.6 nM.
Turning to `Cc1cc(S(=O)(=O)N2CC(C(=O)N(C)C3CCN(C)CC3)c3ccccc32)c(C(F)(F)F)o1` (centres unmarked) [Example 109, 1-(5-Methyl-2-trifluoromethyl-furan-3-sulphonyl)-2,3-dihydro-1H-indole-3-carboxylic acid methyl-(1-methyl-piperidin-4-yl)-amide], the Ki was < 31.6 nM.
